Measurements: patent publication US20050158277A1 (priority 2001, published 2005)

Tested on: S. typhimurium
Type: cell-based
Conditions: up to 50 mM, 30 min exposure
Experimental: FIGS. 17 (a-c) Curve of toxicity of benzyl alcohol. Effect of 30 min exposure to increasing concentration (5 to 80 mM) benzyl alcohol (BA) on the growth of S. typhimurium.

OCc1ccccc1 [BA, benzyl alcohol]
toxic effect on the growth of Salmonella: no toxic effect
